This note sets out measurements from patent publication US10772884B2, “Sulphate salts of N-(3-(4-(3-(diisobutylamino)propyl)piperazin-1-yl)propyl)-1H-benzo[d]imidazol-2-amine, preparation thereof and use of the same” (ALZPROTECT, priority 2012, dated 2020).

Where a name gives a salt, the structure may show the parent alone.

The nature of series [1]: salt formation results (physical form). Particulars: Acid eq. added 0. Type of series: physicochemical. As for the experimental part: The hydrochloride, hydrobromide, acetate, tartrate, fumarate, malate, oxalate and sulphate salts of N-(3-(4-(3-(diisobutylamino)propyl)piperazin-1-yl)propyl)-1H-benzo[d]imidazol-2-amine were prepared according to procedures similar to those described in the previous examples or standard salt formation methods well known in the art.

Series [2] in a line: long term stability (oxidation) in solid state. The class given is physicochemical. Particulars: oxidation at the piperazine ring.
The next series in a line: water solubility. The class given is physicochemical.
For series [3], the system named is APP metabolism in SH-5Y5Y cells (human neuroblastoma cell line overexpressing wild type human APP). The experiment in a line: In vitro APP metabolism assay. The note with it: 0.3, 1, 3 and 10 μM, 24 h. Type of series: cell-based. As for the experimental part:
In Vitro APP Metabolism Assay
This assay was performed using SH-5Y5Y cells (human neuroblastoma cell line overexpressing wild type human APP) which were treated for 24 h with the sulphate salt of example 2. This test was carried out at four different compound concentrations of 0.3, 1, 3 and 10 μM. Quantification of different metabolites was achieved by western-blot analysis. CTFa, CTFβ and AICD were analysed using anti-actin ((I-19) (SC-1616 Santa Cruz Biotechnology; 1:1000 from 200 μg/ml stock) as an internal control and anti-C term APP antibody (1:250000 in washing buffer). Protein concentrations were determined by the BCA Protein Assay Kit (Thermo Scientific). Samples (20 μg total protein) were separated by 16% SDS-PAGE according to the molecular weight of each protein, and transferred to nitrocellulose membranes.

Another series relates to SH-5Y5Y cell line. The experiment in a line: cytotoxicity CC50. Type of series: cell-based, human. The note with it: concentration at which 50% of plated cells remain alive. As to the method:
In addition, it is remarked that no cytotoxicity was found for this sulphate salt, its CC50 on SH-5Y5Y cell line was found greater than 30 μM. CC50 is defined herein as the concentration at which 50% of plated cells remain alive.

Series [4] relates to APP metabolism. The experiment in a line: In vivo APP metabolism assay, acute treatment 24 h p.o. Details: species or system C57Bl6 female mice. As to the method: In Vivo APP Metabolism Assay
(§1) In vivo experiments were carried out on 4-month old C57Bl6 female mice or 2-month old Sprague Dawley rats.
Acute treatment: 24 h p.o.
C57Bl6 female mice were treated per os (gavage) with vehicle or compound (example 2) at 0.25, 0.5, 1, 3 and 6 mg/kg mg/kg (n=6 per group) for 24 h. The product was administered with a disposable Rodent Feeding Tube ECIMED Ref # V0104030 (4 mm×30 mm). The animals were sacrificed after 24 h, the brain was immediately removed for dissection. Levels of CTFα in the frontal cortex (FC) and/or the hippocampus (HIP) were measured by western-blot analysis as previously described. Briefly, tissues were homogenized with […], of lysis buffer (10 mL of Laemmli Pre-Lysis Buffer and 1 tablet of Protease Inhibitor cocktail Complete Mini (Roche)) in a potter. After sonication (5 min), homogenates were centrifuged at 1600 rpm 5 min 4° C. Supernatants were aliquoted and stored at −80° C. before western blot analysis.

Series [5] relates to APP metabolism. The experiment in a line: In vivo APP metabolism assay, chronic treatment 1-month. Details: species or system Sprague Dawley rats. Particulars: rats, 1 or 10 mg/kg/day in drinking water, one month. As to the method: as §1
Chronic Treatment: 1-Month
Rats were provided for one month with 1 or 10 mg/kg/day of the compound of example 2 dissolved in their drinking water. […] The animals were sacrificed after one month and levels of CTFα and CTFβ in the frontal cortex (FC) and/or the hippocampus (HIP) were measured by western-blot analysis as previously described. Dose dependent results are shown on FIGS. 22-a and 22-b. […] The frontal cortex is generally the first region of the brain to be affected by amyloid plaques formation in abnormal APP metabolism related diseases while the hippocampus, which is highly involved in memory and recollection processes, is latterly but severely affected. The sulphate salt of example 2 thus has very positive effect on APP metabolism in both the frontal cortex and the hippocampus and could is therefore of interest in the treatment of neurodegenerative diseases, in particular for both early and advanced stages of abnormal APP metabolism related diseases.

The next series concerns Tau protein. The experiment in a line: Chronic treatment 3-months, Tau protein phosphorylation. The class given is in vivo, C57Bl6 female mice. The note with it: mice, 0.5, 1 or 3 mg/kg in drinking water, brain tissues. An excerpt: Chronic Treatment: 3-Months
(§2) Neuropathological disorders are also characterized by abnormal phosphorylation of Tau protein (AT100). Hyperphosphorylation of the tau protein (on specific sites) can result in the intracellular accumulation of neurofibrillary tangles (NFTs), involved in the pathogenesis of Alzheimer's disease and other tauopathies. One axis of the study was thus to study the effect of the sulphate salt of example 2 on this abnormal phosphorylation. In parallel, such effect was also monitored with regards to the non-pathological phosphorylation of Tau protein (AT8) which should remain unaffected. Another axis of this study was thus the impact of the sulphate salt of example 2 on oxidative stress (OS). Therefore, levels of lipidic peroxidation, a well known marker for the evaluation of oxidative stress, were determined. Indeed, oxidative stress (OS), by the generation of toxic reactive oxygen species (ROS) and oxidative damage (oxidation of vital cellular components as lipids, proteins and DNA), is believed to be involved in the pathogenesis of neurodegenerative disorders. […]
4-month old C57Bl6 female mice were provided with 0.5, 1 or 3 mg/kg of compound of example 2 dissolved in their drinking water. […] Volume consumed was calculated by weighing each bottle after each week and the remaining volume was discarded. […]

Another series concerns lipid peroxidation. The experiment in a line: Chronic treatment 3-months, LPO levels (modified FOX assay). Type of series: in vivo, C57Bl6 female mice. The note with it: mice, 0.5, 1 or 3 mg/kg in drinking water, hippocampi.
Text: as §2, with “determined.” for “determined. Indeed, oxidative stress (OS), by the generation of toxic reactive oxygen species (ROS) and oxidative damage (oxidation of vital cellular components as lipids, proteins and DNA), is believed to be involved in the pathogenesis of neurodegenerative disorders.”
4-month old C57Bl6 female mice were provided with 0.5, 1 or 3 mg/kg of compound of example 2 dissolved in their drinking water. […] Volume consumed was calculated by weighing each bottle after each week and the remaining volume was discarded.
LPO levels measurements: the level of lipid peroxidation in hippocampi is determined as cumene hydroperoxide (CHP) equivalents and expressed as CHP equivalents per wet weight of tissue and as percentage of control group data following the modified FOX assay.

What is called CC50 is the concentration giving 50% cytotoxicity. Low values mean harm at low concentration, high ones better tolerance by the cells.

As to `CC(C)CN(CCCN1CCN(CCCNc2nc3ccccc3[nH]2)CC1)CC(C)C` [Free base, N-(3-(4-(3-(diisobutylamino)propyl)piperazin-1-yl)propyl)-1H-benzo[d]imidazol-2-amine], the Physical form result in series [1] was “Amorphous powder”. Moreover, in series [2], the long term stability entry was “long term stability issues”.

Turning to `CC(C)CN(CCCN1CCN(CCCNc2nc3ccccc3[nH]2)CC1)CC(C)C` [Example 2, N-(3-(4-(3-(diisobutylamino)propyl)piperazin-1-yl)propyl)-1H-benzo[d]imidazol-2-amine, 1.8 eq sulphate salt], the water solubility entry in the series “water solubility” is “remarkable high solubility”. In [3], the Aβ1-42 levels entry was “decreased level” and the sAPPα levels entry was “dose dependent increased levels”. In [3] (western-blot), the AICD levels result was “dose dependent increased levels” and the CTFα levels entry is on record as “dose dependent increased levels”. Also, the CC50 in the series with SH-5Y5Y cell line is greater than 30 µM. The “CTFα levels in the frontal cortex, comparison to the oxalate salt of WO2006/051489” value with APP metabolism [4] (mice, 6 mg/kg per os) was “superior efficiency”. Besides, the “CTFα levels in the frontal cortex” value with APP metabolism [4] (mice, 0.25, 0.5, 1, 3 and 6 mg/kg per os) was “increasing concentrations”. In the series with APP metabolism [5], the “CTFα levels in the frontal cortex” value is “increasing concentrations” and the “CTFβ levels in the hippocampus” value was “decreasing concentrations”. For the same compound, in the series on Tau protein, the “AT8 levels (normal Tau protein phosphorylation)” value is on record as “not affecting” and the “AT100 levels (pathological Tau protein phosphorylation)” value was “decreases”. Besides, the LPO levels entry in the series with lipid peroxidation is listed as “significant decrease”.
